Data as given in publication PMC8745263 (International Journal of Molecular Sciences, 2021).

Target: T1, APEH partially purified from human blood cells (Homo sapiens, UniProt P13798)
T1 construct: incubated with APEH partially purified from human blood cells; from tissue; host or cells: human red blood cells (erythrocyte hemolysate from donors' blood)
T1 sequence (P13798 1-732): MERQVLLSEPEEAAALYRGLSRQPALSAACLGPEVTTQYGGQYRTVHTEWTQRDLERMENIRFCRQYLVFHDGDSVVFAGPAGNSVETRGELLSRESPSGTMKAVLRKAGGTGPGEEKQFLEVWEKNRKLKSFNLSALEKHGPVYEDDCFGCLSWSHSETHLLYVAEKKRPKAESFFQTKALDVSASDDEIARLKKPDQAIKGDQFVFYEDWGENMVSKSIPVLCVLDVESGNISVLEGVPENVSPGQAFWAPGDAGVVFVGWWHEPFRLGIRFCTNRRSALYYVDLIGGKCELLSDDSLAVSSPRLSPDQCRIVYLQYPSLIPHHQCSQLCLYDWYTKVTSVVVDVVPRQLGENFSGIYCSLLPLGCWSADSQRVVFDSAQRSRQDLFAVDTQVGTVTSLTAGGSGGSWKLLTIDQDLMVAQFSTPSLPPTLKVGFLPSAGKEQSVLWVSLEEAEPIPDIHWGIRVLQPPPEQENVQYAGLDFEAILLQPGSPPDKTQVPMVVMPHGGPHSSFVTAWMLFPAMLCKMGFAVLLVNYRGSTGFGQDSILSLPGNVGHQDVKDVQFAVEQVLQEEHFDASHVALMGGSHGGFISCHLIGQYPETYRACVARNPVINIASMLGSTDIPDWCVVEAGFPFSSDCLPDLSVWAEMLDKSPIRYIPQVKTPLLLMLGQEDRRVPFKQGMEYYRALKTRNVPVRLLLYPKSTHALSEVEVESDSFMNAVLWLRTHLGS
Assay: Treatment of peptides with APEH and assessment of proteolysis by LC-MS
Format: biochemical
Conditions: APEH 0.7 μg, 37 °C, 48 h; for % Degradation (overall % of peptide degraded upon exposure to APEH): sum of fragment % of Table 2(a), Tris-HCl 25 mM pH 7.5, N.D. = not degraded
Procedure: In order to identify the potential cleavage sites of APEH on the oxidized GDF11[48-64], the peptide was incubated alone or in combination with the enzyme and the corresponding reaction mixtures were analyzed by LC-MS. The same experiments were performed using the non-oxidized analogues as control.
Blood samples were taken from donors using syringes with heparin. In accordance with ethical principles stated in the Declaration of Helsinki, as well as with approved national and international guidelines for human research, a written informed consent was obtained from participants. The erythrocytes were separated from the plasma by centrifugation at 1800× g for 5 min at 4 °C and washed twice with an isotonic solution (10 mM Tris-HCl pH 7.6, […]; 4 °C). Lysis of erythrocytes was carried out by incubation in hypotonic solution (25 mM Tris/HCl, pH 7.5) for 30 min on ice. The hemolysate was obtained by centrifugation of the lysate at 9200× g for 40 min at 4 °C. Then, the ‘soluble fraction’ was loaded onto a DEAE Sepharose Fast Flow column, connected to an AKTA FPLC system (Amersham Biosciences, Amersham, UK), previously equilibrated in 25 mM Tris-HCl (pH 7.5) (buffer A). The bound proteins were eluted using a linear ionic strength gradient (0–100%) of 1 M NaCl in buffer A at a flow rate of 1 mL min^−1. The active fractions were collected, pooled, dialyzed against 25 mM Tris-HCl pH 7.5 and loaded on a Superdex 200 PC 3.2/30 column (Pharmacia Biotech, Stockholm, Sweden) connected to a SMART System (Pharmacia Biotech, Stockholm, Sweden). The bound proteins were eluted with 25 mM Tris-HCl buffer, pH 7.5, containing 50 mM NaCl, at a flow rate of 0.1 mL min^−1. The active fractions were collected, pooled, dialyzed against 25 mM Tris-HCl pH 7.5 and stored in the same buffer supplemented with 5% glycerol. Enzyme purification was monitored using Ac-Met-7-amino-4-methylcoumarin (AMC) as substrate. Active fractions were analyzed by SDS-PAGE (12%) in order to evaluate the enrichment of the protein during the various purification steps. The protein was also characterized by Western Blot analysis. Aliquots of protein samples were subjected to SDS-PAGE (8%), and then electroblotted onto PVDF membranes (ImmobilonTM, Millipore, Milan, Italy). Membranes were next incubated with the specific primary antibody (sc-102311, 1:5000, Santa Cruz Biotechnology, USA) and then with the horseradish peroxidase-conjugated secondary antibody for 1 h at 37 °C (1:5000, Santa Cruz Biotechnology, Dallas, TX, USA). The immune complexes formed were visualized by enhanced chemiluminescence and autoradiography, according to the manufacturer’s protocol (Amersham Biosciences, Amersham, UK). Molecular mass of the native enzyme was established by gel filtration chromatography on a Superdex 200 PC 3.2/30 column (Pharmacia Biotech, Stockholm, Sweden), connected to a SMART system (Pharmacia Biotech, Stockholm, Sweden), and calibrated with BioRad gel filtration standards (BioRad, Milano, Italy; code 151-1901). The enzyme inhibition assay was performed on APEH preparation using the selective and potent inhibitor AA74-1 (SML0358, Sigma-Aldrich, Milano, Italy). Mixtures containing appropriate amount of inhibitor (62 µM) and APEH sample (0.7 μg) were pre-incubated for 30 min at 37 °C; then the substrate Ac-Met-7-amino-4-methylcoumarin (AMC) was added to the assay mixture and the enzymatic activity was followed as previously described. Control samples were prepared by pre-incubating the same amounts of APEH without the inhibitor and then assayed following the same procedure.
In total, 10 nmol/200 μL of each molecule was incubated with APEH partially purified from human blood cells (0.7 μg, 24.000 total units) at 37 °C for 48 h in Tris-HCl 25 mM pH 7.5. […]

[1] = 10 nmol/200 μL peptide, Tris-HCl 25 mM pH 7.5, EIC peak areas, average of three independent experiments
[2] = 10 nmol/200 μL peptide, Tris-HCl 25 mM pH 7.5, EIC peak areas, average of three independent experiments, listed as GDF11[48-64]ox
[3] = 10 nmol/200 μL peptide, Tris-HCl 25 mM pH 7.5, EIC peak areas, average of three independent experiments, listed as GDF11 wt

| Substance | % fragment cleaved at L60 (Ac-...HTHL, lacking VQQA), percentage of the initial substrate [1] [%] | % fragment cleaved on carboxy side of H59 (Ac-...HTH, lacking LVQQA), percentage of the initial substrate [1] [%] | % fragment cleaved on carboxy side of Q62 (Ac-...HTHLVQ, lacking QA), percentage of the initial substrate [1] [%] | % intact peptide left after APEH exposure (percentage of the initial substrate) [1] [%] | % fragment cleaved at L60 (Ac-...HTHL, lacking VQQA), percentage of the initial substrate [2] | % fragment cleaved on carboxy side of H59 (Ac-...HTH, lacking LVQQA), percentage of the initial substrate [2] | % fragment cleaved on carboxy side of Q62 (Ac-...HTHLVQ, lacking QA), percentage of the initial substrate [2] | % fragment cleaved on carboxy side of H59 (Ac-...HTH, lacking LVQQA), percentage of the initial substrate [3] [%] | % fragment cleaved on carboxy side of Q62 (Ac-...HTHLVQ, lacking QA), percentage of the initial substrate [3] [%] | cleavage at H59 as % of the total processed peptide (Tris-HCl 25 mM pH 7.5) | cleavage at L60 as % of the total processed peptide (Tris-HCl 25 mM pH 7.5) | cleavage at Q62 as % of the total processed peptide (Tris-HCl 25 mM pH 7.5) | % Degradation (overall % of peptide degraded upon exposure to APEH) (10 nmol/200 μL peptide) [%] | % Degradation (overall % of peptide degraded upon exposure to APEH) (10 nmol/200 μL peptide, listed as GDF11[48-64]ox) | susceptibility to APEH endoprotease cleavage (in words) (Tris-HCl 25 mM pH 7.5) |
| --- | --- | --- | --- | --- | --- | --- | --- | --- | --- | --- | --- | --- | --- | --- | --- |
| Ac-EYM(ox)FM(ox)QKYPHTHLVQQA-NH2 [GDF11[48-64] wt ox, GDF11[48-64]wt bearing sulphoxide groups on M50 and M52, by 3% H2O2 treatment] | 8.4 | 25.6 | 16.4 | 49.6 | about 8% | about 26% | about 16% | ~28 | 18 | around 50% | about 17% | around 32% | 50.4 | around 50% | – |
| Ac-EYMFMQKYPHTHLVQQA-NH2 [GDF11[48-64]wt, peptide reproducing the 48–64 region of GDF11 protein, acetylated and amidated] | – | – | – | – | – | – | – | – | – | – | – | – | – | – | No cleavage |
